Assays:
KRAS G12C = KRAS G12C (Homo sapiens, UniProt P01116, G12C); experiment: GDP-GTP exchange assay (KRAS_G12C exchange); type: biochemical; conditions: bodipy-GDP loaded KRAS G12C 2.5 nM, SOS1 150 nM, GppNHp; 2 hours pre-incubation, 2 hours reaction; read-out: G12C_exchange
Method in brief: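 Fluorescence exchange of bodipy-GDP for GppNHp, SOS1-driven, read at 485/520 nm; IC50 from four-parameter variable-slope fit. Both mutants used 2.5 nM final labelled protein and a 2 h compound pre-incubation. G12C reaction had 500 uM GppNHp and 150 nM SOS1 for 2 h; G12D ran 4 h.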

[1] = system: MIA PaCa-2 (KRAS G12C) cells; experiment: Cellular pERK HTRF assay (KRAS_G12C pERK); type: cell-based, human; conditions: Homo sapiens, MIA PaCa-2, 4 hours incubation, read-out: G12C_pERK
Method in brief: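 Phospho-ERK1/2 HTRF readout (665 and 620 nm) in lysed MIA PaCa-2 cells, antibodies incubated overnight at room temperature. Cells seeded the day before and treated with G12C compounds for 4 h at 37 °C; IC50 fitted to percent inhibition against log inhibitor concentration.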

Chain of KRAS G12C (P01116 1-188 isoform P01116-2 G12C): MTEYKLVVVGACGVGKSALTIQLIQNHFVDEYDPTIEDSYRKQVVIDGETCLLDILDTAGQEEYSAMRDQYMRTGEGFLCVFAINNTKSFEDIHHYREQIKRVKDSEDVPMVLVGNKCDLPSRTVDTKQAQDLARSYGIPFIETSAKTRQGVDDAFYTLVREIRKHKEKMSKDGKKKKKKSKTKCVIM

Row | SMILES | IC50 (KRAS G12C) [nM] | IC50 [1] [nM]
1 | C=CC(=O)N1CCC(n2cnc3c(N4CC(N(C)CC)C4)nc4c(F)c(-c5cccc6cccc(Cl)c56)c(C)cc4c32)C[C@H]1CC#N (single isomer, unassigned) [Example 223a] | ≤ 100 | ≤ 100
2 | CC#CC(=O)N1CCC(n2cnc3c(N4CC(N(C)CC)C4)nc4c(F)c(-c5cccc6cccc(Cl)c56)c(C)cc4c32)C[C@H]1CC#N (single isomer, unassigned) [Example 224a] | ≤ 100 | ≤ 100
3 | CN(C)C/C=C/C(=O)N1CC[C@H](n2cnc3c(N4CC(N(C)C)C4)nc4c(F)c(-c5ccc(F)c6cccnc56)c(C(F)(F)F)cc4c32)C[C@H]1CC#N (single isomer, unassigned) [Example 230a] | ≤ 100 | ≤ 100
4 | CC#CC(=O)N1CC[C@H](n2nnc3c(N4CC(N(C)C)C4)nc4c(F)c(-c5c(C)c(Cl)cc6[nH]ncc56)c(CCC#N)cc4c32)C[C@H]1CC#N (single isomer, unassigned) [Example 231a] | ≤ 100 | ≤ 100
5 | C=CC(=O)N1CC[C@H](n2nnc3c(N4CC(C)(N(C)C)C4)nc4c(F)c(-c5ccc(F)c6cccnc56)c(C(F)(F)F)cc4c32)C[C@H]1CC#N (single isomer, unassigned) [Example 233a] | ≤ 100 | ≤ 100
6 | C=CC(=O)N1CC[C@H](n2nnc3c(N4CC(C)(N(C)C)C4)nc4c(F)c(-c5cccc(C)c5Cl)c(C(F)(F)F)cc4c32)C[C@H]1CC#N (single isomer, unassigned) [Example 235a] | ≤ 100 | ≤ 100
7 | C=CC(=O)N1CC[C@H](n2nnc3c(N4CC(C)(N(C)C)C4)nc4c(F)c(-c5cccc(Cl)c5C)c(C(F)(F)F)cc4c32)C[C@H]1CC#N (single isomer, unassigned) [Example 238a] | ≤ 100 | ≤ 100
8 | CC#CC(=O)N1CC[C@H](n2nnc3c(OC[C@@H]4CCCN4C)nc4c(F)c(-c5cccc(C)c5Cl)c(CCC#N)cc4c32)C[C@H]1CC#N (single isomer, unassigned) [Example 242a] | ≤ 100 | ≤ 100
9 | CC#CC(=O)N1CC[C@H](n2nnc3c(N4CC(C)(N(C)C)C4)nc4c(F)c(-c5cccc(Cl)c5OC)c(C(F)(F)F)cc4c32)C[C@H]1CC#N (single isomer, unassigned) [Example 243b] | ≤ 100 | ≤ 100
10 | CC#CC(=O)N1CC[C@H](n2nnc3c(N4CC(C)(N(C)C)C4)nc4c(F)c(-c5cccc(C)c5OC)c(C(F)(F)F)cc4c32)C[C@H]1CC#N (single isomer, unassigned) [Example 245a] | ≤ 100 | ≤ 100
11 | C=CC(=O)N1CC[C@H](n2cnc3c(N4CC(N(C)C)C4)nc4c(F)c(-c5c(C)c(Cl)cc6[nH]ncc56)c(Cl)cc4c32)C[C@H]1CC#N (single isomer, unassigned) [Example 267a] | ≤ 100 | ≤ 100
12 | CC#CC(=O)N1CC[C@H](n2nnc3c(OC[C@@H]4CCCN4C)nc4c(Cl)c(-c5ccc(F)c6cccnc56)c(Cl)cc4c32)C[C@H]1CC#N (single isomer, unassigned) [Example 270a] | ≤ 100 | ≤ 100
13 | C=CC(=O)N1CC[C@H](n2nnc3c(N4CC(N(C)C)C4)nc4c(Cl)c(-c5ccc(F)c6cccnc56)c(Cl)cc4c32)C[C@H]1CC#N (single isomer, unassigned) [Example 271a] | ≤ 100 | ≤ 100
14 | C=CC(=O)N1CCC(n2cnc3c(N4CC(N(C)C)C4)nc4c(F)c(-c5cc(O)cc6ccccc56)c(Cl)cc4c32)CC1 [Example 9, 1-(4-(8-chloro-4-(3-(dimethylamino)azetidin-1-yl)-6-fluoro-7-(3-hydroxy-naphthalen-1-yl)-1H-imidazo[4,5-c]quinolin-1-yl)piperidin-1-yl)prop-2-en-1-one] | ≤ 100 | 100 to 1000
15 | C=CC(=O)N1CCC(n2c(=O)[nH]c3c(OC[C@@H]4CCCN4C)nc4c(F)c(-c5cc(O)cc6ccccc56)c(Cl)cc4c32)CC1 [Example 10, 1-(1-Acryloylpiperidin-4-yl)-8-chloro-6-fluoro-7-(3-hydroxynaphthalen-1-yl)-4-(((S)-1-methylpyrrolidin-2-yl)methoxy)-1,3-dihydro-2H-imidazo[4,5-c]quinolin-2-one] | ≤ 100 | 100 to 1000
16 | C=CC(=O)N1CCC(n2cnc3c(-c4cc(O)cc5ccccc45)nc4c(F)c(-c5cc(O)cc6ccccc56)c(Cl)cc4c32)CC1 [Example 11, 1-(4-(8-chloro-6-fluoro-4,7-bis(3-hydroxynaphthalen-1-yl)-1H-imidazo[4,5-c]quinolin-1-yl)piperidin-1-yl)prop-2-en-1-one] | ≤ 100 | 100 to 1000
17 | C=CC(=O)N1CCC(n2cnc3c(-c4c(O)cccc4F)nc4c(F)c(-c5c(O)cccc5F)c(Cl)cc4c32)CC1 [Example 12, 1-(4-(8-chloro-6-fluoro-4,7-bis(2-fluoro-6-hydroxyphenyl)-1H-imidazo[4,5-c]-quinolin-1-yl)piperidin-1-yl)prop-2-en-1-one] | 100 to 1000 | 1000 to 5000
18 | C=CC(=O)N1CCC(n2cnc3cnc4c(F)c(-c5c(O)cccc5F)c(Cl)cc4c32)CC1 [Example 13, 1-(4-(8-Chloro-6-fluoro-7-(2-fluoro-6-hydroxyphenyl)-1H-imidazo[4,5-c]-quinolin-1-yl)piperidin-1-yl)prop-2-en-1-one] | 100 to 1000 | 1000 to 5000

Continued, values first:

Row | IC50 (KRAS G12C) [nM] | IC50 [1] [nM] | SMILES
19 | ≤ 100 | ≤ 100 | C=CC(=O)N1CC[C@H](n2nnc3c(OC[C@@H]4CCCN4C)nc4c(Cl)c(-c5ccc(F)c6cccnc56)c(Cl)cc4c32)C[C@H]1CC#N (single isomer, unassigned) [Example 276a]
20 | ≤ 100 | ≤ 100 | CC#CC(=O)N1CC[C@H](n2nnc3c(N4CC(N(C)C)C4)nc4c(Cl)c(-c5cccc6cccnc56)c(Cl)cc4c32)C[C@H]1CC#N (single isomer, unassigned) [Example 277a]
21 | ≤ 100 | ≤ 100 | CC#CC(=O)N1CC[C@H](n2nnc3c(OC[C@@H]4CCCN4C)nc4c(Cl)c(-c5cccc6cccnc56)c(Cl)cc4c32)C[C@H]1CC#N (single isomer, unassigned) [Example 279a]
22 | ≤ 100 | ≤ 100 | CC#CC(=O)N1CC[C@H](n2nnc3c(OC[C@@H]4CCCN4C)nc4c(Cl)c(-c5cc(F)cc6cccnc56)c(Cl)cc4c32)C[C@H]1CC#N (single isomer, unassigned) [Example 280a]
23 | ≤ 100 | ≤ 100 | C=CC(=O)N1CC[C@H](n2nnc3c(N4CC(N(C)C)C4)nc4c(Cl)c(-c5cccc6cccnc56)c(Cl)cc4c32)C[C@H]1CC#N (single isomer, unassigned) [Example 283a]
24 | ≤ 100 | ≤ 100 | C=CC(=O)N1CC[C@H](n2nnc3c(N4CC(N(C)C)C4)nc4c(Cl)c(-c5cc(F)cc6cccnc56)c(Cl)cc4c32)C[C@H]1CC#N (single isomer, unassigned) [Example 284a]
25 | ≤ 100 | ≤ 100 | C=CC(=O)N1CC[C@H](n2nnc3c(OC[C@@H]4CCCN4C)nc4c(Cl)c(-c5cccc6cccnc56)c(Cl)cc4c32)C[C@H]1CC#N (single isomer, unassigned) [Example 288a]
26 | ≤ 100 | ≤ 100 | C=CC(=O)N1CC[C@H](n2nnc3c(OC[C@@H]4CCCN4C)nc4c(Cl)c(-c5cc(F)cc6cccnc56)c(Cl)cc4c32)C[C@H]1CC#N (single isomer, unassigned) [Example 289a]

— patent US20210269434A1, “TRICYCLIC COMPOUNDS AS INHIBITORS OF KRAS” (Incyte Corporation, priority 2020, published 2021)
